Measured values published in patent US20200069691A1, “HETEROCYCLIC COMPOUNDS AS HIV PROTEASE INHIBITORS” (Merck Sharp & Dohme Corp., priority 2016, published 2020).

Target: T1, wild-type HIV-1 protease (Human immunodeficiency virus type 1 group M subtype B, UniProt P04585)
T1 construct: Escherichia coli expressed wild-type HIV-1 protease protein
Test: Assay for Inhibition of Microbial Expressed HIV Protease (peptide substrate cleavage, LC-MS/MS readout)
Type: biochemical
Conditions: E. coli expressed wild-type HIV-1 protease, mean of at least two independent experiments, read-out: HIV Pr Enzyme HIV1 PR IC50
Procedure: Assay for Inhibition of Microbial Expressed HIV Protease
Inhibition of Escherichia coli expressed wild-type HIV-1 protease protein was carried out with a peptide substrate [Val-Ser-Gln-Asn-(βnaphtyl)Ala-Pro-Ile-Val]. The inhibitor compound was preincubated with HIV-1 protease enzyme in assay buffer (50 mM sodium acetate, pH 5.5, 100 mM NaCl, and 0.1% BSA) for 30 minutes at room temperature. Peptide substrate was added to 400 μM in a total volume of 20 μL containing […] HIV-1 protease (final) after which the reaction was incubated for 1 hour at 30° C. […] The extent of inhibition of the reaction was determined from the peak area of the products.
Data shown in the table reflects the mean of at least two independent experiments.

**Q.** For `N=C1N[C@@](c2ccc(F)cc2)(C2CCOCC2)C(=O)N1C1CCCc2ccc(C(=O)N3Cc4nccnc4C3)cc21` (stereo in doubt) [Compound 130, (5R)-3-[(1R)-7-(5,7-dihydro-6H-pyrrolo[3,4-b]pyrazin-6-ylcarbonyl)-1,2,3,4-tetrahydronaphthalen-1-yl]-5-(4-fluorophenyl)-2-imino-5-(tetrahydro-2H-pyran-4-yl)imidazolidin-4-one], which IC50 is on record?
**A.** Its IC50 is 80.5 nM.

**Q.** How did the IC50 turn out when `CC(C)CC[C@]1(c2ccc(F)cc2)NC(=N)N(C(CCCc2ccccc2)c2ccc(C(F)(F)F)c(C(=O)N3Cc4nccnc4C3)c2)C1=O` (stereo partly drawn) [Compound 2, (5R)-3-{1-[3-(5,7-dihydro-6H-pyrrolo[3,4-b]pyrazin-6-ylcarbonyl)-4-(trifluoro-methyl)phenyl]-4-phenylbutyl}-5-(4-fluorophenyl)-2-imino-5-(3-methylbutyl)imidazolidin-4-one] was run?
**A.** The IC50 was 0.14 nM.

**Q.** With `N=C1N[C@](CCC2CC2)(c2ccc(F)cc2)C(=O)N1C(CCc1ccccc1)c1ccc(C(F)(F)F)c(C(=O)N2Cc3nccnc3C2)c1` (stereo partly drawn) [Compound 3, (5R)-5-(2-cyclopropylethyl)-3-{1-[3-(5,7-dihydro-6H-pyrrolo[3,4-b]pyrazin-6-ylcarbonyl)-4-(trifluoromethyl)phenyl]-3-phenylpropyl}-5-(4-fluorophenyl)-2-iminoimidazolidin-4-one] as the compound, how does the IC50 read?
**A.** Its IC50 is 0.17 nM.

**Q.** With `CC(C)CC[C@]1(c2ccc(F)cc2)NC(=N)N(C(Cc2ccccc2)c2ccc(C(F)(F)F)c(C(=O)N3Cc4nccnc4C3)c2)C1=O` (stereo partly drawn) [Compound 4, (5R)-3-{1-[3-(5,7-dihydro-6H-pyrrolo[3,4-b]pyrazin-6-ylcarbonyl)-4-(trifluoromethyl)-phenyl]-2-phenylethyl}-5-(4-fluorophenyl)-2-imino-5-(3-methylbutyl)-imidazolidin-4-one] as the compound, how does the IC50 read?
**A.** The IC50 was 0.2 nM.

**Q.** `CC(C)CC[C@]1(c2ccccc2)NC(=N)N(C(CC(C)C)c2ccc(C(F)(F)F)c(C(=O)N3Cc4nccnc4C3)c2)C1=O` (stereo partly drawn) [Compound 5, (5R)-3-{1-[3-(5,7-dihydro-6H-pyrrolo[3,4-b]pyrazin-6-ylcarbonyl)-4-(trifluoromethyl)-phenyl]-3-methylbutyl}-2-imino-5-(3-methylbutyl)-5-phenylimidazo-lidin-4-one] was tested. Which IC50 did it give?
**A.** The IC50 was 0.26 nM.

**Q.** For `CC(C)CC[C@]1(c2ccc(F)cc2)NC(=N)N(C(Cc2ccccc2)c2ccc(C(F)(F)F)c(C(=O)N3Cc4nccnc4C3)c2)C1=O` (stereo partly drawn) [Compound 6, (5R)-3-{1-[3-(5,7-dihydro-6H-pyrrolo[3,4-b]pyrazin-6-ylcarbonyl)-4-(trifluoromethyl)-phenyl]-2-phenylethyl}-5-(4-fluorophenyl)-2-imino-5-(3-methylbutyl)imidazolidin-4-one], which IC50 is on record?
**A.** The IC50 was 0.26 nM.

**Q.** `N=C1N[C@](CCC2CC2)(c2ccc(F)cc2)C(=O)N1C(CN1CCCC1=O)c1ccc(C(F)(F)F)c(C(=O)N2Cc3nccnc3C2)c1` (stereo partly drawn) [Compound 7, (5R)-5-(2-cyclopropylethyl)-3-{1-[3-(5,7-dihydro-6H-pyrrolo[3,4-b]pyrazin-6-ylcarbonyl)-4-(trifluoromethyl)phenyl]-2-(2-oxopyrrolidin-1-yl)ethyl}-5-(4-fluorophenyl)-2-iminoimidazolidin-4-one] was tested. Which IC50 did it give?
**A.** Its IC50 is 0.39 nM.

**Q.** With `CC(C)CC[C@]1(c2ccc(F)cc2)NC(=N)N(C(COC(C)C)c2ccc(C(F)(F)F)c(C(=O)N3Cc4nccnc4C3)c2)C1=O` (stereo partly drawn) [Compound 8, (5R)-3-{1-[3-(5,7-dihydro-6H-pyrrolo[3,4-b]pyrazin-6-ylcarbonyl)-4-(trifluoromethyl)phenyl]-2-(1-methylethoxy)ethyl}-5-(4-fluorophenyl)-2-imino-5-(3-methylbutyl)imidazolidin-4-one] as the compound, how does the IC50 read?
**A.** Its IC50 is 0.52 nM.

**Q.** How did the IC50 turn out when `CC(C)CCC(c1ccc(C(F)(F)F)c(C(=O)N2Cc3nccnc3C2)c1)N1C(=N)N[C@](CCC(C)C)(c2ccccc2)C1=O` (stereo partly drawn) [Compound 9, (5R)-3-{1-[3-(5,7-dihydro-6H-pyrrolo[3,4-b]pyrazin-6-ylcarbonyl)-4-(trifluoromethyl)phenyl]-4-methylpentyl}-2-imino-5-(3-methylbutyl)-5-phenylimidazolidin-4-one] was run?
**A.** The IC50 was 0.6 nM.

**Q.** For `N=C1N[C@](CCCC(F)(F)F)(c2ccc(F)cc2)C(=O)N1Cc1ccc(C(F)(F)F)c(C(=O)N2Cc3cnc(-c4cnn(CCO)c4)nc3C2)c1` [Compound 12, (5R)-5-(4-fluorophenyl)-3-[3-({2-[1-(2-hydroxyethyl)-1H-pyrazol-4-yl]-5,7-dihydro-6H-pyrrolo[3,4-d]pyrimidin-6-yl}carbonyl)-4-(trifluoromethyl)benzyl]-2-imino-5-(4,4,4-trifluorobutyl)imidazolidin-4-one], which IC50 is on record?
**A.** The IC50 was 1.32 nM.

**Q.** How did the IC50 turn out when `CC(C)CC(c1ccc(C(F)(F)F)c(C(=O)N2Cc3nccnc3C2)c1)N1C(=N)N[C@](CC2CCOCC2)(c2ccc(F)cc2)C1=O` (stereo partly drawn) [Compound 14, (5R)-3-{1-[3-(5,7-dihydro-6H-pyrrolo[3,4-b]pyrazin-6-ylcarbonyl)-4-(trifluoromethyl)phenyl]-3-methylbutyl}-5-(4-fluorophenyl)-2-imino-5-(tetrahydro-2H-pyran-4-ylmethyl)imidazolidin-4-one] was run?
**A.** The IC50 was 1.77 nM.

**Q.** `Cn1cc(-c2ncc3c(n2)CN(C(=O)c2cc(CN4C(=N)N[C@](CCCC(F)(F)F)(c5ccc(F)cc5)C4=O)ccc2C(F)(F)F)C3)cn1` [Compound 15, (5R)-5-(4-fluorophenyl)-2-imino-3-[3-{[2-(1-methyl-1H-pyrazol-4-yl)-5,7-dihydro-6H-pyrrolo[3,4-d]pyrimidin-6-yl]carbonyl}-4-(trifluoromethyl)benzyl]-5-(4,4,4-trifluorobutyl)imidazolidin-4-one] was tested. Which IC50 did it give?
**A.** Its IC50 is 1.95 nM.

**Q.** For `CN(C)c1ccc(-c2ncc3c(n2)CN(C(=O)c2cc(CN4C(=N)N[C@](CCCC(F)(F)F)(c5ccc(F)cc5)C4=O)ccc2C(F)(F)F)C3)cn1` [Compound 16, (5R)-3-[3-({2-[6-(dimethylamino)pyridin-3-yl]-5,7-dihydro-6H-pyrrolo[3,4-d]pyrimidin-6-yl}carbonyl)-4-(trifluoromethyl)benzyl]-5-(4-fluorophenyl)-2-imino-5-(4,4,4-trifluorobutyl)imidazolidin-4-one], which IC50 is on record?
**A.** The IC50 was 1.98 nM.

**Q.** For `CS(=O)(=O)CCn1cc(-c2ncc3c(n2)CN(C(=O)c2cc(CN4C(=N)N[C@](CCCC(F)(F)F)(c5ccc(F)cc5)C4=O)ccc2C(F)(F)F)C3)cn1` [Compound 17, (5R)-5-(4-fluorophenyl)-2-imino-3-{3-[(2-{1-[2-(methylsulfonyl)ethyl]-1H-pyrazol-4-yl}-5,7-dihydro-6H-pyrrolo[3,4-d]pyrimidin-6-yl)carbonyl]-4-(trifluoromethyl)-benzyl}-5-(4,4,4-trifluorobutyl)-imidazolidin-4-one], which IC50 is on record?
**A.** The IC50 was 1.99 nM.

**Q.** For `CCCn1cc(-c2ncc3c(n2)CN(C(=O)c2cc(CN4C(=N)N[C@](CCCC(F)(F)F)(c5ccc(F)cc5)C4=O)ccc2C(F)(F)F)C3)cn1` [Compound 18, (5R)-5-(4-fluorophenyl)-2-imino-3-[3-{[2-(1-propyl-1H-pyrazol-4-yl)-5,7-dihydro-6H-pyrrolo[3,4-d]pyrimidin-6-yl]carbonyl}-4-(trifluoromethyl)benzyl]-5-(4,4,4-trifluorobutyl)imidazolidin-4-one], which IC50 is on record?
**A.** Its IC50 is 2 nM.

**Q.** With `COCCn1cc(-c2ncc3c(n2)CN(C(=O)c2cc(CN4C(=N)N[C@](CCCC(F)(F)F)(c5ccc(F)cc5)C4=O)ccc2C(F)(F)F)C3)cn1` [Compound 20, (5R)-5-(4-fluorophenyl)-2-imino-3-[3-({2-[1-(2-methoxyethyl)-1H-pyrazol-4-yl]-5,7-dihydro-6H-pyrrolo[3,4-d]pyrimidin-6-yl}carbonyl)-4-(trifluoromethyl)benzyl]-5-(4,4,4-trifluorobutyl)imidazolidin-4-one] as the compound, how does the IC50 read?
**A.** Its IC50 is 2.3 nM.

**Q.** How did the IC50 turn out when `C[S+]([O-])c1cccc(-c2ncc3c(n2)CN(C(=O)c2cc(CN4C(=N)N[C@](CCCC(F)(F)F)(c5ccc(F)cc5)C4=O)ccc2C(F)(F)F)C3)c1` (stereo partly drawn) [Compound 21, (5R)-5-(4-fluorophenyl)-2-imino-3-[3-({2-[3-(methylsulfmyl)phenyl]-5,7-dihydro-6H-pyrrolo[3,4-d]pyrimidin-6-yl}carbonyl)-4-(trifluoromethyl)benzyl]-5-(4,4,4-trifluorobutyl)imidazolidin-4-one] was run?
**A.** Its IC50 is 2.31 nM.

**Q.** How did the IC50 turn out when `N=C1N[C@](CCCC(F)(F)F)(c2ccc(F)cc2)C(=O)N1Cc1ccc(C(F)(F)F)c(C(=O)N2Cc3cnc(-c4cccc5[nH]ncc45)nc3C2)c1` [Compound 22, (5R)-5-(4-fluorophenyl)-2-imino-3-[3-{[2-(1H-indazol-4-yl)-5,7-dihydro-6H-pyirolo[3,4-d]pyrimidin-6-yl]carbonyl}-4-(trifluoromethyl)benzyl]-5-(4,4,4-trifluorobutyl)imidazolidin-4-one] was run?
**A.** The IC50 was 2.32 nM.

**Q.** How did the IC50 turn out when `CC(C)CCC(c1ccc(C(F)(F)F)c(C(=O)N2CCn3c(nnc3C(F)(F)F)C2)c1)N1C(=N)N[C@](CCC(C)C)(c2ccccc2)C1=O` (stereo partly drawn) [Compound 23, (5R)-2-imino-5-(3-methylbutyl)-3-{4-methyl-1-[4-(trifluoromethyl)-3-{[3-(trifluoromethyl)-5,6-dihydro[1,2,4]triazolo[4,3-a]pyrazin-7(8H)-yl]carbonyl}phenyl]pentyl}-5-phenylimidazolidin-4-one] was run?
**A.** The IC50 was 2.38 nM.

**Q.** For `CS(=O)(=O)c1cccc(-c2ncc3c(n2)CN(C(=O)c2cc(CN4C(=N)N[C@](CCCC(F)(F)F)(c5ccc(F)cc5)C4=O)ccc2C(F)(F)F)C3)c1` [Compound 24, (5R)-5-(4-fluorophenyl)-2-imino-3-[3-({2-[3-(methylsulfonyl)phenyl]-5,7-dihydro-6H-pyrrolo[3,4-d]pyrimidin-6-yl}carbonyl)-4-(trifluoromethyl)benzyl]-5-(4,4,4-trifluorobutyl)imidazolidin-4-one], which IC50 is on record?
**A.** Its IC50 is 2.41 nM.
